Measured values taken from US20260262643A1, “HERBICIDAL BENZOXAZINES” (FMC CORPORATION, priority 2022, published 2026).

Key:
[1] = system: corn; assay: Test A postemergence; assay type: in vivo, Zea mays
Procedure, shortened: (§1)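 Greenhouse pot test, 10 days. Compound (non-phytotoxic solvent, surfactant) sprayed on soil at seeding or on seedlings at one- to two-leaf stage. Visual injury rated 0–100 against untreated plants.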

[2] = system: soybean; assay: Test A preemergence; assay type: in vivo, Glycine max
Procedure, shortened: as §1

[3] = system: wheat; assay: Test A preemergence; assay type: in vivo, Triticum aestivum
Procedure, shortened: as §1

[4] = system: oat, wild; assay: Test A postemergence; assay type: in vivo, Avena fatua
Procedure, shortened: as §1

[5] = system: ducksalad; assay: Test B flooded paddy test; assay type: in vivo, Heteranthera limosa; details: 250 g ai/ha, Flood, 13 days, 0 to 100 scale (0 no effect, 100 complete control)
Procedure, shortened: (§2)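 Visual scores from 0 (no effect) to 100 (complete kill) were assigned 13 days after treatment by comparison with controls. Seedlings had been treated at two leaves by adding compound to floodwater standing 3 cm deep, kept at that level in the greenhouse.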

[6] = system: corn; assay: Test A preemergence; assay type: in vivo, Zea mays
Procedure, shortened: as §1

[7] = system: ryegrass, Italian; assay: Test A preemergence; assay type: in vivo, Lolium multiflorum
Procedure, shortened: as §1

[8] = system: ragweed; assay: Test A postemergence; assay type: in vivo, Ambrosia artemisiifolia
Procedure, shortened: as §1

[9] = system: foxtail, giant; assay: Test A postemergence; assay type: in vivo, Setaria faberi
Procedure, shortened: as §1

[10] = system: pigweed, palmer; assay: Test A postemergence; assay type: in vivo, Amaranthus palmeri
Procedure, shortened: as §1

[11] = system: blackgrass; assay: Test A postemergence; assay type: in vivo, Alopecurus myosuroides
Procedure, shortened: as §1

[12] = system: foxtail, giant; assay: Test A preemergence; assay type: in vivo, Setaria faberi
Procedure, shortened: as §1

[13] = system: goosegrass; assay: Test A postemergence; assay type: in vivo, Eleusine indica
Procedure, shortened: as §1

[14] = system: oat, wild; assay: Test A preemergence; assay type: in vivo, Avena fatua
Procedure, shortened: as §1

[15] = system: blackgrass; assay: Test A preemergence; assay type: in vivo, Alopecurus myosuroides
Procedure, shortened: as §1

[16] = system: sedge, umbrella; assay: Test B flooded paddy test; assay type: in vivo, Cyperus difformis; details: 250 g ai/ha, Flood, 13 days, 0 to 100 scale (0 no effect, 100 complete control)
Procedure, shortened: as §2

[17] = system: barnyardgrass; assay: Test B flooded paddy test; assay type: in vivo, Echinochloa crus-galli; details: 250 g ai/ha, Flood, 13 days, 0 to 100 scale (0 no effect, 100 complete control)
Procedure, shortened: as §2

[18] = system: goosegrass; assay: Test A preemergence; assay type: in vivo, Eleusine indica
Procedure, shortened: as §1

[19] = system: pigweed, palmer; assay: Test A preemergence; assay type: in vivo, Amaranthus palmeri
Procedure, shortened: as §1

[20] = system: wheat; assay: Test A postemergence; assay type: in vivo, Triticum aestivum
Procedure, shortened: as §1

[21] = system: kochia; assay: Test A preemergence; assay type: in vivo, Bassia scoparia
Procedure, shortened: as §1

[22] = system: ryegrass, Italian; assay: Test A postemergence; assay type: in vivo, Lolium multiflorum
Procedure, shortened: as §1

[23] = system: kochia; assay: Test A postemergence; assay type: in vivo, Bassia scoparia
Procedure, shortened: as §1

[24] = system: ragweed; assay: Test A preemergence; assay type: in vivo, Ambrosia artemisiifolia
Procedure, shortened: as §1

[25] = system: galium; assay: Test A postemergence; assay type: in vivo, Galium aparine
Procedure, shortened: as §1

[26] = system: soybean; assay: Test A postemergence; assay type: in vivo, Glycine max
Procedure, shortened: as §1

[27] = system: rice; assay: Test B flooded paddy test; assay type: in vivo, Oryza sativa; details: 250 g ai/ha, Flood, 13 days, 0 to 100 scale (0 no effect, 100 complete control)
Procedure, shortened: as §2

[28] = 125 g ai/ha, postemergence, 10 days, visual injury, 0 to 100 scale (0 no effect, 100 complete control)
[29] = 500 g ai/ha, Postemergence, 0 to 100 scale
[30] = 125 g ai/ha, visual injury after 10 days, 0 to 100 scale, 0 is no effect, 100 is complete control
[31] = 500 g ai/ha, 0 to 100 scale (0 no effect, 100 complete control), 10 days

## C[C@H]1CN(C(=O)c2cccc(-n3cncn3)c2)c2cccc(C#N)c2O1 [Compound 46]
[1]; [28]
  Plant response rating, Corn: 10
[1]; [29]
  Plant response rating, Corn: 30
[2]; [30]
  Plant response rating, Soybean: 20
[2]; [31]
  Plant response rating, Soybean: 60
[3]; [30]
  Plant response rating, Wheat: 0
[3]; [31]
  Plant response rating, Wheat: 30
[4]; [28]
  Plant response rating, Oat, Wild: 0
[4]; [29]
  Plant response rating, Oat, Wild: 40
[5]
  Plant response rating, Ducksalad: 0
[6]; [30]
  Plant response rating, Corn: 0
[6]; [31]
  Plant response rating, Corn: 0
[7]; [30]
  Plant response rating, Ryegrass, Italian: 60
[7]; [31]
  Plant response rating, Ryegrass, Italian: 80
[8]; [28]
  Plant response rating, Ragweed: 0
[8]; [29]
  Plant response rating, Ragweed: 0
[9]; [28]
  Plant response rating, Foxtail, Giant: 20
[9]; [29]
  Plant response rating, Foxtail, Giant: 90
[10]; [28]
  Plant response rating, Pigweed, Palmer: 20
[10]; [29]
  Plant response rating, Pigweed, Palmer: 50
[11]; [28]
  Plant response rating, Blackgrass: 30
[11]; [29]
  Plant response rating, Blackgrass: 70
[12]; [30]
  Plant response rating, Foxtail, Giant: 60
[12]; [31]
  Plant response rating, Foxtail, Giant: 100
[13]; [28]
  Plant response rating, Goosegrass: 10
[13]; [29]
  Plant response rating, Goosegrass: 60
[14]; [30]
  Plant response rating, Oat, Wild: 0
[14]; [31]
  Plant response rating, Oat, Wild: 70
[15]; [30]
  Plant response rating, Blackgrass: 60
[15]; [31]
  Plant response rating, Blackgrass: 90
[16]
  Plant response rating, Sedge, Umbrella: 0
[17]
  Plant response rating, Barnyardgrass: 0
[18]; [30]
  Plant response rating, Goosegrass: 60
[18]; [31]
  Plant response rating, Goosegrass: 100
[19]; [30]
  Plant response rating, Pigweed, Palmer: 40
[19]; [31]
  Plant response rating, Pigweed, Palmer: 90
[20]; [28]
  Plant response rating, Wheat: 10
[20]; [29]
  Plant response rating, Wheat: 50
[21]; [31]
  Plant response rating, Kochia: 40
[22]; [28]
  Plant response rating, Ryegrass, Italian: 40
[22]; [29]
  Plant response rating, Ryegrass, Italian: 80
[23]; [28]
  Plant response rating, Kochia: 20
[23]; [29]
  Plant response rating, Kochia: 80
[24]; [30]
  Plant response rating, Ragweed: 0
[24]; [31]
  Plant response rating, Ragweed: 0
[25]; [28]
  Plant response rating, Galium: 60
[25]; [29]
  Plant response rating, Galium: 100
[26]; [28]
  Plant response rating, Soybean: 90
[26]; [29]
  Plant response rating, Soybean: 100
[27]
  Plant response rating, Rice: 0

## Cc1ccc(C(=O)N2CC(C)Oc3c(Cl)cccc32)cc1-n1cncn1 (stereo not shown) [Compound 38]
[1]; [28]
  Plant response rating, Corn: 20
[1]; [29]
  Plant response rating, Corn: 80
[2]; [30]
  Plant response rating, Soybean: 0
[2]; [31]
  Plant response rating, Soybean: 30
[3]; [30]
  Plant response rating, Wheat: 0
[3]; [31]
  Plant response rating, Wheat: 10
[4]; [28]
  Plant response rating, Oat, Wild: 0
[4]; [29]
  Plant response rating, Oat, Wild: 40
[5]
  Plant response rating, Ducksalad: 0
[6]; [30]
  Plant response rating, Corn: 20
[6]; [31]
  Plant response rating, Corn: 30
[7]; [30]
  Plant response rating, Ryegrass, Italian: 70
[7]; [31]
  Plant response rating, Ryegrass, Italian: 80
[8]; [28]
  Plant response rating, Ragweed: 0
[8]; [29]
  Plant response rating, Ragweed: 0
[9]; [28]
  Plant response rating, Foxtail, Giant: 60
[9]; [29]
  Plant response rating, Foxtail, Giant: 90
[10]; [28]
  Plant response rating, Pigweed, Palmer: 30
[10]; [29]
  Plant response rating, Pigweed, Palmer: 50
[11]; [28]
  Plant response rating, Blackgrass: 0
[11]; [29]
  Plant response rating, Blackgrass: 70
[12]; [30]
  Plant response rating, Foxtail, Giant: 70
[12]; [31]
  Plant response rating, Foxtail, Giant: 100
[13]; [28]
  Plant response rating, Goosegrass: 30
[13]; [29]
  Plant response rating, Goosegrass: 70
[14]; [30]
  Plant response rating, Oat, Wild: 10
[14]; [31]
  Plant response rating, Oat, Wild: 60
[15]; [30]
  Plant response rating, Blackgrass: 30
[15]; [31]
  Plant response rating, Blackgrass: 70
[16]
  Plant response rating, Sedge, Umbrella: 0
[17]
  Plant response rating, Barnyardgrass: 0
[18]; [30]
  Plant response rating, Goosegrass: 70
[18]; [31]
  Plant response rating, Goosegrass: 100
[19]; [30]
  Plant response rating, Pigweed, Palmer: 10
[19]; [31]
  Plant response rating, Pigweed, Palmer: 70
[20]; [28]
  Plant response rating, Wheat: 10
[20]; [29]
  Plant response rating, Wheat: 70
[21]; [30]
  Plant response rating, Kochia: 0
[21]; [31]
  Plant response rating, Kochia: 30
[22]; [28]
  Plant response rating, Ryegrass, Italian: 10
[22]; [29]
  Plant response rating, Ryegrass, Italian: 60
[23]; [28]
  Plant response rating, Kochia: 20
[23]; [29]
  Plant response rating, Kochia: 60
[24]; [30]
  Plant response rating, Ragweed: 0
[24]; [31]
  Plant response rating, Ragweed: 0
[25]; [28]
  Plant response rating, Galium: 30
[25]; [29]
  Plant response rating, Galium: 50
[26]; [29]
  Plant response rating, Soybean: 50
[27]
  Plant response rating, Rice: 0

## CC1CN(C(=O)c2cc(F)cc(-n3cncn3)c2)c2cccc(Cl)c2O1 (stereo not shown) [Compound 37]
[1]; [28]
  Plant response rating, Corn: 10
[1]; [29]
  Plant response rating, Corn: 80
[2]; [30]
  Plant response rating, Soybean: 0
[2]; [31]
  Plant response rating, Soybean: 70
[3]; [30]
  Plant response rating, Wheat: 0
[3]; [31]
  Plant response rating, Wheat: 20
[4]; [28]
  Plant response rating, Oat, Wild: 0
[4]; [29]
  Plant response rating, Oat, Wild: 30
[5]
  Plant response rating, Ducksalad: 0
[6]; [30]
  Plant response rating, Corn: 0
[6]; [31]
  Plant response rating, Corn: 20
[7]; [30]
  Plant response rating, Ryegrass, Italian: 80
[7]; [31]
  Plant response rating, Ryegrass, Italian: 90
[8]; [28]
  Plant response rating, Ragweed: 0
[8]; [29]
  Plant response rating, Ragweed: 0
[9]; [28]
  Plant response rating, Foxtail, Giant: 50
[9]; [29]
  Plant response rating, Foxtail, Giant: 90
[10]; [28]
  Plant response rating, Pigweed, Palmer: 30
[10]; [29]
  Plant response rating, Pigweed, Palmer: 60
[11]; [28]
  Plant response rating, Blackgrass: 30
[11]; [29]
  Plant response rating, Blackgrass: 80
[12]; [30]
  Plant response rating, Foxtail, Giant: 90
[12]; [31]
  Plant response rating, Foxtail, Giant: 100
[13]; [28]
  Plant response rating, Goosegrass: 40
[13]; [29]
  Plant response rating, Goosegrass: 90
[14]; [30]
  Plant response rating, Oat, Wild: 0
[14]; [31]
  Plant response rating, Oat, Wild: 60
[15]; [30]
  Plant response rating, Blackgrass: 60
[15]; [31]
  Plant response rating, Blackgrass: 80
[16]
  Plant response rating, Sedge, Umbrella: 0
[17]
  Plant response rating, Barnyardgrass: 0
[18]; [30]
  Plant response rating, Goosegrass: 90
[18]; [31]
  Plant response rating, Goosegrass: 100
[19]; [30]
  Plant response rating, Pigweed, Palmer: 50
[19]; [31]
  Plant response rating, Pigweed, Palmer: 90
[20]; [28]
  Plant response rating, Wheat: 40
[20]; [29]
  Plant response rating, Wheat: 80
[21]; [30]
  Plant response rating, Kochia: 0
[21]; [31]
  Plant response rating, Kochia: 20
[22]; [28]
  Plant response rating, Ryegrass, Italian: 30
[22]; [29]
  Plant response rating, Ryegrass, Italian: 90
[23]; [28]
  Plant response rating, Kochia: 50
[23]; [29]
  Plant response rating, Kochia: 90
[24]; [30]
  Plant response rating, Ragweed: 0
[24]; [31]
  Plant response rating, Ragweed: 0
[25]; [28]
  Plant response rating, Galium: 40
[25]; [29]
  Plant response rating, Galium: 100
[26]; [28]
  Plant response rating, Soybean: 100
[26]; [29]
  Plant response rating, Soybean: 100
[27]
  Plant response rating, Rice: 0
